In patent publication US20100041900A1, “Isolation of lactam compound from adlay bran and its use on anti-proliferative cancer cells” (KUANG TA FOODS CO., LTD, priority 2008, published 2010):
Values after ≈ are worked out from the molar mass of the structure shown. Read-outs that look alike come from different tables or passages of the source.

Legend:
Assay type in all cases: cell-based
[1] = system: COLO 205 (human colon carcinoma); experiment: MTT assay, growth inhibition of COLO 205 cells; details: 48 hours incubation, mean ± SD of three replicates; for IC50: Homo sapiens, COLO 205, 48 h, read-out: IC50 (concentration required for 50% growth inhibition of cancer cells), COLO 205
Protocol: (§1) The cell lines A549 (human lung cancer), HT-29 (human colon carcinoma), and COLO 205 (human colon carcinoma) were obtained from the American Type Culture Collection (ATCC) (Rockville, Md.). These cell lines were maintained in DMEM containing 10% heat-inactivated fetal bovine serum, 100 units/mL of penicillin and 100 μg/mL of streptomycin, and were kept at 37° C. in a 5% CO2 incubator.
(§2) MTT assay was performed as described by Hansen et al. (Hansen et al., J. Immunol. Methods 119, 203-210, 1989). A549 (1.5×10^3 cells/well), HT-29 (2×10^3 cells/well), and COLO 205 (3×10^3 cells/well) were seeded in 96-well plates and grown overnight. Cells were then incubated in 10% FBS medium containing different amounts of adlay bran subfractions for 48 hours. At the end of incubation, media were replaced with 100 μL of reagent (MTT, 1 mg/mL) and incubated in a 5% CO2 incubator at 37° C. for another 2 h. The medium was then discarded and 100 μL of DMSO was added to each well. The absorbance was measured at 570 nm by scanning with a micro-plate reader (Molecular Devices, Calif.). Each sample was analyzed six times, and the values were averaged. For the determination of IC50 (the concentration of each substance required to inhibit cell proliferation by 50%), each sample was measured at five different concentrations by the MTT test. […] The IC50 values of each sample were collected from three replicates, and then mean±standard deviation values were obtained for the results of the IC50 assay.

A549 (human lung cancer) = experiment: MTT assay, growth inhibition of A549 cells; details: for IC50: Homo sapiens
Protocol: as §1, §2

[2] = system: HT-29 (human colon carcinoma); experiment: MTT assay, growth inhibition of HT-29 cells; details: 48 hours incubation, mean ± SD of three replicates; for IC50: Homo sapiens, HT-29, 48 h, read-out: IC50 (concentration required for 50% growth inhibition of cancer cells), HT-29
Protocol: as §1, §2

[3] = A549, 48 h, A549 cells, 48 hours incubation, MTT, mean ± SD of three replicates, read-out: IC50 (concentration required for 50% growth inhibition of cancer cells), A549
[4] = A549, summary range over all five compounds and all three cell lines A549, HT-29, COLO 205, read-out: IC50 values against A549, HT-29 and COLO 205 cells (overall range)

Structure (SMILES)	IC50 [1] [µg/mL]	IC50 (A549 (human lung cancer); [3]) [µg/mL]	IC50 (A549 (human lung cancer); [4]) [µg/mL]	IC50 [2] [µg/mL]	IC50 (concentration required for 50% growth inhibition of cancer cells), COLO 205 [1] [µg/mL]	IC50 (concentration required for 50% growth inhibition of cancer cells), A549 (A549 (human lung cancer); A549 cells, 48 hours incubation, MTT, mean ± SD of three replicates) [µg/mL]	IC50 (concentration required for 50% growth inhibition of cancer cells), HT-29 [2] [µg/mL]
O=C1C[C@]2(CO1)C(=O)Nc1ccccc12 [Compound 1, coixspirolactam A]	35.9 ± 4.65 (≈ 177 µM)	37.1 ± 1.93 (≈ 183 µM)	28.6 to 72.6 (≈ 141 to 357 µM)	34.4 ± 3.53 (≈ 169 µM)			
CC1OC(=O)C[C@@]12C(=O)Nc1ccccc12 (stereo partly shown) [Compound 2, coixspirolactam B]	41.3 ± 3.52 (≈ 190 µM)	28.6 ± 2.04 (≈ 132 µM)	28.6 to 72.6 (≈ 132 to 334 µM)	32.7 ± 2.29 (≈ 151 µM)			
CC1OC(=O)C[C@@]12C(=O)Nc1ccccc12 (stereo partly shown) [Compound 3, coixspirolactam C]					48.12 ± 4.15	31.75 ± 2.58	37.55 ± 3.08
COC(=O)[C@H]1Cc2ccccc2NC1=O [Compound 4, coixlactam]	72.6 ± 5.31 (≈ 354 µM)	65 ± 3.32 (≈ 317 µM)	28.6 to 72.6 (≈ 139 to 354 µM)	52.6 ± 2.64 (≈ 256 µM)			
COC(=O)CC1(O)C(=O)Nc2ccccc21 (stereo not shown) [Compound 5, methyl dioxindole-3-acetate]	45.5 ± 6.42 (≈ 206 µM)	42.6 ± 2.31 (≈ 193 µM)	28.6 to 72.6 (≈ 129 to 328 µM)	48.9 ± 3.83 (≈ 221 µM)			
